The values that follow come from patent publication US12624034B2, “Non-covalent modifiers of AKT1 and uses thereof” (Terremoto Biosciences, Inc., priority 2023, dated 2026).

Molecules are shown by their SMILES. Like-named read-outs stand apart in the source and are kept apart here. A value given as a limit tells only on which side of the number the result lay.

Assay [1] has as its system LAPC4 prostate cancer cells, which express the AKT1 E17K allele. In words: Antiproliferative effects in LAPC4 cells (CellTiter Glo, 72 h). Conditions: Homo sapiens, LAPC4, 72 h, read-out: LAPC4 proliferation IC50. The class given is cell-based. In short, it runs like this: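 IC50 values reflect 72 h compound treatment of cells plated at 1,000 per well, with CellTiter Glo luminescence as the viability read-out.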

Another assay concerns the target T1, AKT1 E17K (Homo sapiens, UniProt P31749, E17K).
T1 construct: expressed in transfected cells; host or cells: HEK293
The experiment in a line: Live cell AKT1 E17K target engagement by NanoBRET competitive probe displacement in HEK293 cells. The following applies: 2 h at 37° C. The class given is binding. An outline of the steps:
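Live-cell NanoBRET: HEK293, kinase-NanoLuc fusion, ATP-competitive fluorescent tracer ~EC50, 2 h 37° C, extracellular NanoLuc inhibitor present; IC50 from log(inhibitor)–response Hill fit.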
For orientation: BRET reads energy transfer from a luciferase to a nearby fluorophore.

The target in the next assay is T2, AKT1 WT (Homo sapiens, UniProt P31749).
T2 construct: expressed in transfected cells; host or cells: HEK293
In words: Live cell AKT1 WT target engagement by NanoBRET competitive probe displacement in HEK293 cells. Format: binding. Conditions: 2 h at 37° C., read-out: AKT1 WT IC50.

Another assay has as its target T3, AKT2 (Homo sapiens, UniProt P31751).
T3 construct: expressed in transfected cells; host or cells: HEK293
The experiment in a line: Live cell AKT2 target engagement by NanoBRET competitive probe displacement in HEK293 cells. Format: binding. Conditions: 2 h at 37° C., read-out: AKT2 IC50.

The mark [2] stands for this setting: NanoBRET live cell target engagement, HEK293 cells.
The mark [3] stands for this setting: NanoBRET competitive probe displacement, live HEK293 cells.

T2 sequence (P31749 whole entry): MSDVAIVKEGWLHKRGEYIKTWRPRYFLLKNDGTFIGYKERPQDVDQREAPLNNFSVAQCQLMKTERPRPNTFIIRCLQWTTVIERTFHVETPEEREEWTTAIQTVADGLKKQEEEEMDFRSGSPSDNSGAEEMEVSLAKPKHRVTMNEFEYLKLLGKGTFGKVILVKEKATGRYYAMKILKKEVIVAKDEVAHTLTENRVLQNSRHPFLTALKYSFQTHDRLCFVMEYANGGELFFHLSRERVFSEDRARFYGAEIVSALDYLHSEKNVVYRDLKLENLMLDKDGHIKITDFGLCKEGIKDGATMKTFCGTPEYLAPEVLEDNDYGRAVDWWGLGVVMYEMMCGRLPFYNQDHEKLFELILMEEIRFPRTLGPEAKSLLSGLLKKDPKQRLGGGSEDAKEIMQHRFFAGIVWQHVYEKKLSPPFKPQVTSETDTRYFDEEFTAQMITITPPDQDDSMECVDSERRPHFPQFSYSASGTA
T1 sequence (P31749 whole entry E17K): as the sequence (P31749 whole entry) above, with E17K counted along it
T3 sequence (P31751 whole entry): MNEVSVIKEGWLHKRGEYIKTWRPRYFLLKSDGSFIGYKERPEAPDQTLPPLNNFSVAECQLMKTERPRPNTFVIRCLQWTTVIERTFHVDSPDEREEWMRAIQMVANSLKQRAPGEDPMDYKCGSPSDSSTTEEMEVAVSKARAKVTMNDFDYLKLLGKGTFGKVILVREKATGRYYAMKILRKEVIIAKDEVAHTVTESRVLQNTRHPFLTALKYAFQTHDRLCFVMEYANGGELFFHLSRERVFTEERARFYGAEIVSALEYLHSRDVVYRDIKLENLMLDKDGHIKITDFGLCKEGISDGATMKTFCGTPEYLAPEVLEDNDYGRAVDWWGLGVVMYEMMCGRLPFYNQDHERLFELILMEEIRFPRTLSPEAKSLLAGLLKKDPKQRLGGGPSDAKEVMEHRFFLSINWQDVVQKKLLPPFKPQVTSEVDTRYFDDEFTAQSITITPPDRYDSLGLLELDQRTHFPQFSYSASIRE

For `Nc1ncccc1-c1nc2ccc(-n3cccn3)nc2n1-c1ccc2c(c1)CC[C@@H]2NC(=O)Cc1cccnc1` [Compound 48, (S)—N-(5-(2-(2-aminopyridin-3-yl)-5-(1H-pyrazol-1-yl)-3H-imidazo[4,5-b]pyridin-3-yl)-2,3-dihydro-1H-inden-1-yl)-2-(pyridin-3-yl)acetamide], the IC50 in assay [1] is > 10000 nM; on AKT1 E17K (setting [2]) it was > 1000 nM; at AKT1 WT (setting [2]), 155 nM; at AKT2 (setting [2]), 2850 nM.

`Cc1cc(C(=O)N[C@H]2CCc3cc(-n4c(-c5cccnc5N)nc5ccc(-n6cccn6)nc54)ccc32)n[nH]1` [Compound 4, (S)—N-(5-(2-(2-aminopyridin-3-yl)-5-(1H-pyrazol-1-yl)-3H-imidazo[4,5-b]pyridin-3-yl)-2,3-dihydro-1H-inden-1-yl)-5-methyl-11H-pyrazole-3-carboxamide]: the IC50 in assay [1] was found to be 1770 nM; on AKT1 E17K (setting [2]), 172 nM; at AKT1 WT (setting [2]), 19.7 nM; at AKT2 (setting [2]), 295 nM.

Consider `Nc1ncccc1-c1nc2ccc(-n3cccn3)nc2n1-c1ccc2c(c1)CC[C@@H]2NC(=O)c1ccc(O)cc1` [Compound 42, (S)—N-(5-(2-(2-aminopyridin-3-yl)-5-(1H-pyrazol-1-yl)-3H-imidazo[4,5-b]pyridin-3-yl)-2,3-dihydro-1H-inden-1-yl)-4-hydroxybenzamide], for which the IC50 turned out to be 631 nM in assay [1], 14.4 nM at AKT1 E17K (setting [2]), 2.84 nM at AKT1 WT (setting [2]) and 40.7 nM on AKT2 (setting [2]).

On to `COc1cncc(C(=O)N[C@H]2CCc3cc(-n4c(-c5cccnc5N)nc5ccc(-n6cccn6)nc54)ccc32)c1` [Compound 21, (S)—N-(5-(2-(2-aminopyridin-3-yl)-5-(1H-pyrazol-1-yl)-3H-imidazo[4,5-b]pyridin-3-yl)-2,3-dihydro-1H-inden-1-yl)-5-methoxynicotinamide], for which the IC50 in assay [1] was found to be 1050 nM; on AKT1 E17K (setting [2]), 20.9 nM; on AKT1 WT (setting [2]) it was 4.46 nM; on AKT2 (setting [2]), 30.2 nM.

On to `COc1ccc(C(=O)N[C@H]2CCc3cc(-n4c(-c5cccnc5N)nc5ccc(-n6cccn6)nc54)ccc32)cn1` [Compound 38, N-[(1S)-5-[2-(2-aminopyridin-3-yl)-5-(pyrazol-1-yl)imidazo[4,5-b]pyridin-3-yl]-2,3-dihydro-1H-inden-1-yl]-6-methoxypyridine-3-carboxamide], for which the IC50 in assay [1] was determined as 585 nM; on AKT1 E17K (setting [2]), 25.6 nM; on AKT1 WT (setting [2]) it was 4.07 nM; at AKT2 (setting [2]), 19 nM.

Take `Nc1ncccc1-c1nc2ccc(-n3nccn3)nc2n1-c1ccc2c(c1)CC[C@@H]2NC(=O)c1ccc(C2CC2)nc1` [Compound 491]: the IC50 is 285 nM in assay [1], 23.6 nM on AKT1 E17K (setting [3]), 5.37 nM at AKT1 WT (setting [3]) and 351 nM at AKT2 (setting [3]).

In the case of `Nc1ncccc1-c1nc2ccc(-n3cccn3)nc2n1-c1ccc2c(c1)CC[C@@H]2NC1CN(c2ccccn2)C1` [Compound 439], the IC50 was 3820 nM in assay [1], 655 nM at AKT1 E17K (setting [3]), 15 nM at AKT1 WT (setting [3]) and 794 nM at AKT2 (setting [3]).

Take `Nc1ncccc1-c1nc2ccc(-n3nccn3)nc2n1-c1ccc2c(c1)CC[C@@H]2NC(=O)c1cnc(C(F)F)cn1` [Compound 288]: the IC50 was 3680 nM in assay [1], > 1000 nM at AKT1 E17K (setting [2]), 112 nM on AKT1 WT (setting [2]) and > 10000 nM on AKT2 (setting [2]).

For the molecule `Nc1ncccc1-c1nc2ccc(-n3cccn3)nc2n1-c1ccc2c(c1)CC[C@@H]2NC(=O)c1ccc2nccn2c1` [Compound 17, (S)—N-(5-(2-(2-aminopyridin-3-yl)-5-(1H-pyrazol-1-yl)-3H-imidazo[4,5-b]pyridin-3-yl)-2,3-dihydro-1H-inden-1-yl)imidazo[1,2-a]pyridine-6-carboxamide], the IC50 came out at 1020 nM in assay [1], 41.2 nM at AKT1 E17K (setting [2]), 5.78 nM at AKT1 WT (setting [2]) and 90.6 nM at AKT2 (setting [2]).

Consider `Nc1ncccc1-c1nc2ccc(-n3cccn3)nc2n1-c1ccc2c(c1)CC[C@@H]2NC1CN(C(=O)C2CC2)C1` [Compound 441], for which the IC50 in assay [1] is 3710 nM; on AKT1 E17K (setting [3]), > 1000 nM; on AKT1 WT (setting [3]), 21.7 nM; at AKT2 (setting [3]), 1340 nM.

Consider `Cn1ccc(C(=O)N[C@H]2CCc3cc(-n4c(-c5cccnc5N)nc5ccc(-n6cccn6)nc54)ccc32)n1` [Compound 13, (S)—N-(5-(2-(2-aminopyridin-3-yl)-5-(1H-pyrazol-1-yl)-3H-imidazo[4,5-b]pyridin-3-yl)-2,3-dihydro-1H-inden-1-yl)-1-methyl-1H-pyrazole-3-carboxamide], for which the IC50 in assay [1] turned out to be 3480 nM; on AKT1 E17K (setting [2]), 329 nM; on AKT1 WT (setting [2]), 49.4 nM; at AKT2 (setting [2]), 1270 nM.

As for `CN(C)c1cc(C(=O)N[C@H]2CCc3cc(-n4c(-c5cccnc5N)nc5ccc(-n6cccn6)nc54)ccc32)ccn1` [Compound 63, (S)—N-(5-(2-(2-aminopyridin-3-yl)-5-(1H-pyrazol-1-yl)-3H-imidazo[4,5-b]pyridin-3-yl)-2,3-dihydro-1H-inden-1-yl)-2-(dimethylamino)isonicotinamide], the IC50 in assay [1] is 970 nM; on AKT1 E17K (setting [2]) it was 73.9 nM; at AKT1 WT (setting [2]), 2.57 nM; on AKT2 (setting [2]), 12.6 nM.

`Cc1ccc(C(=O)N[C@H]2CCc3cc(-n4c(-c5cccnc5N)nc5ccc(-n6ccc(F)n6)nc54)ccc32)cn1` [Compound 52, (S)—N-(5-(2-(2-aminopyridin-3-yl)-5-(3-fluoro-1H-pyrazol-1-yl)-3H-imidazo[4,5-b]pyridin-3-yl)-2,3-dihydro-1H-inden-1-yl)-6-methylnicotinamide]: the IC50 stood at 915 nM in assay [1], 357 nM on AKT1 E17K (setting [2]), 11.6 nM on AKT1 WT (setting [2]) and 128 nM at AKT2 (setting [2]).

Take `Nc1ncccc1-c1nc2ccc(-n3cccn3)nc2n1-c1ccc2c(c1)CC[C@@H]2NC(=O)c1ccc(C2CC2)nc1` [Compound 46, N-[(1S)-5-[2-(2-aminopyridin-3-yl)-5-(pyrazol-1-yl)imidazo[4,5-b]pyridin-3-yl]-2,3-dihydro-1H-inden-1-yl]-6-cyclopropylpyridine-3-carboxamide]: the IC50 in assay [1] stood at 331 nM; at AKT1 E17K (setting [2]), 15 nM; on AKT1 WT (setting [2]), 6.94 nM; on AKT2 (setting [2]), 17 nM.

Turning to `Nc1ncccc1-c1nc2ccc(-n3cccn3)nc2n1-c1ccc2c(c1)CC[C@@H]2NC1CCN(C(=O)c2ccncc2)CC1` [Compound 360], the IC50 in assay [1] is > 10000 nM; at AKT1 E17K (setting [2]) it was > 1000 nM; on AKT1 WT (setting [2]), 483 nM; at AKT2 (setting [2]), 8140 nM.

In the case of `COc1ccc(C(=O)N[C@H]2CCc3cc(-n4c(-c5cccnc5N)nc5ccc(-n6cccn6)nc54)ccc32)cc1` [Compound 12, (S)—N-(5-(2-(2-aminopyridin-3-yl)-5-(1H-pyrazol-1-yl)-3H-imidazo[4,5-b]pyridin-3-yl)-2,3-dihydro-1H-inden-1-yl)-4-methoxybenzamide], the IC50 was 740 nM in assay [1], 10.5 nM on AKT1 E17K (setting [2]), 7.56 nM on AKT1 WT (setting [2]) and 38.1 nM at AKT2 (setting [2]).

In the case of `CN(C)C(=O)N1CCC(N[C@H]2CCc3cc(-n4c(-c5cccnc5N)nc5ccc(-n6cccn6)nc54)ccc32)CC1` [Compound 394], the IC50 in assay [1] is > 10000 nM; at AKT1 E17K (setting [3]), > 1000 nM; on AKT1 WT (setting [3]), 101 nM; on AKT2 (setting [3]), 1480 nM.
